Test results reported in patent publication US9499492B2, “4-(ortho)-fluorophenyl-5-fluoropyrimidin-2-yl amines containing a sulfoximine group” (BAYER PHARMA AKTIENGESELLSCHAFT, priority 2012, dated 2016).
Like-named read-outs stand apart in the source and are kept apart here.

Assays:
CDK2/CycE = CDK2/CycE (Homo sapiens (Human), UniProt P24941); assay: CDK2/CycE kinase assay (Method 2); assay type: biochemical; details: 10 μM ATP
[1] = In vitro metabolic stability in rat hepatocytes (Method 5); assay type: in vitro ADME, Han Wistar rat; details: 1 μM test compound
Procedure: 5. Investigation of In Vitro Metabolic Stability in Rat Hepatocytes
Hepatocytes from Han Wistar rats were isolated via a 2-step perfusion method. After perfusion, the liver was carefully removed from the rat: the liver capsule was opened and the hepatocytes were gently shaken out into a Petri dish with ice-cold Williams medium E (purchased from Sigma Aldrich Life Science, St Louis, Mo.). The resulting cell suspension was filtered through sterile gaze in 50 ml falcon tubes and centrifuged at 50×g for 3 min at room temperature. The cell pellet was resuspended in 30 ml WME and centrifuged through a Percoll® gradient for 2 times at 100×g. The hepatocytes were washed again with Williams' medium E (WMA) and resuspended in medium containing 5% Fetal calf serum (FCS, purchased from Invitrogen, Auckland, NZ). Cell viability was determined by trypan blue exclusion.
For the metabolic stability assay liver cells were distributed in WME containing 5% FCS to glass vials at a density of 1.0×10^6 vital cells/ml. The test compound was added to a final concentration of 1 μM. During incubation, the hepatocyte suspensions were continuously shaken and aliquots were taken at 2, 8, 16, 30, 45 and 90 min, to which equal volumes of cold acetonitrile were immediately added. Samples were frozen at −20° C. over night, after subsequently centrifuged for 15 minutes at 3000 rpm and the supernatant was analyzed with an Agilent 1200 HPLC-system with LCMS/MS detection.
The half-life of a test compound was determined from the concentration-time plot. From the half-life the intrinsic clearances were calculated. Together with the additional parameters liver blood flow, amount of liver cells in vivo and in vitro.

[2] = test system: HeLa, human cervical tumour cells; assay: Proliferation assay, HeLa (Method 3); assay type: cell-based; details: 4 days, crystal violet, read-out: Inhibition of HeLa cell proliferation IC50
Outline: (§1)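 Cells were seeded and, after 24 h, exposed to compounds at 0.001–10 µM (final DMSO 0.5%) for 4 days. Cell number was measured by glutaraldehyde fixation, crystal violet staining and absorbance at 595 nm. Values were normalised to a zero-point plate (0%) and untreated cells (100%).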

[3] = test system: A2780, human ovarian carcinoma cells; assay: Proliferation assay, A2780 (Method 3); assay type: cell-based; details: A2780, 4 days, crystal violet, read-out: Inhibition of A2780 cell proliferation IC50
Outline: as §1

[4] = test system: HeLa-MaTu-ADR, multidrug-resistant human cervical carcinoma cells; assay: Proliferation assay, HeLa-MaTu-ADR (Method 3); assay type: cell-based; details: 4 days, crystal violet, read-out: Inhibition of HeLa-MaTu-ADR cell proliferation IC50
Procedure: (§2) After 24 hours, the cells of one plate (zero-point plate) were stained with crystal violet (see below), while the medium of the other plates was replaced by fresh culture medium (200 μl), to which the test substances were added in various concentrations (0 μM, as well as in the range of 0.001-10 μM; the final concentration of the solvent dimethyl sulfoxide was 0.5%). The cells were incubated for 4 days in the presence of test substances. Cell proliferation was determined by staining the cells with crystal violet: the cells were fixed by adding 20 μl/measuring point of an 11% glutaric aldehyde solution for 15 minutes at room temperature. After three washing cycles of the fixed cells with water, the plates were dried at room temperature. The cells were stained by adding 100 μl/measuring point of a 0.1% crystal violet solution (pH 3.0). After three washing cycles of the stained cells with water, the plates were dried at room temperature. The dye was dissolved by adding 100 μl/measuring point of a 10% acetic acid solution. The extinction was determined by photometry at a wavelength of 595 nm. The change of cell number, in percent, was calculated by normalization of the measured values to the extinction values of the zero-point plate (=0%) and the extinction of the untreated (0 μm) cells (=100%).

[5] = test system: B16F10, mouse melanoma cells; assay: Proliferation assay, B16F10 (Method 3); assay type: cell-based; details: B16F10, 4 days, crystal violet, read-out: Inhibition of B16F10 cell proliferation IC50
Procedure: as §2

[6] = test system: DU 145, hormone-independent human prostate carcinoma cells; assay: Proliferation assay, DU 145 (Method 3); assay type: cell-based; details: DU145, 4 days, crystal violet, read-out: Inhibition of DU145 cell proliferation IC50
Procedure: as §2

[7] = test system: NCI-H460, human non-small cell lung carcinoma cells; assay: Proliferation assay, NCI-H460 (Method 3); assay type: cell-based; details: NCI-H460, 4 days, crystal violet, read-out: Inhibition of H460 cell proliferation IC50
Procedure: as §2

[8] = test system: Caco-2, human colorectal carcinoma cells; assay: Proliferation assay, Caco-2 (Method 3); assay type: cell-based; details: Caco-2, 4 days, crystal violet, read-out: Inhibition of Caco-2 cell proliferation IC50
Procedure: as §2

SMILES	IC50 (CDK2/CycE)	maximal calculated oral bioavailability (Fmax) based on stability data in rat Hepatocytes [1]	IC50 ([2]; Homo sapiens, 96 h)	IC50 ([3]; Homo sapiens, A2780, 96 h)	IC50 ([4]; Homo sapiens, 96 h)	IC50 ([5]; Mus musculus, B16-F10, 96 h)	IC50 ([6]; Homo sapiens, DU-145, 96 h)	IC50 ([7]; Homo sapiens, NCI-H460, 96 h)	IC50 ([8]; Homo sapiens, Caco-2, 96 h)	IC50 [4]	IC50 [2]	IC50 [5]	IC50 [6]	IC50 [7]	IC50 [3]	IC50 [8]
CS(=O)(Cc1cc(Nc2ncc(F)c(-c3ccc(F)cc3F)n2)cc(C(F)(F)F)c1)=NC#N (racemic) [Example 1, (rac)-{[3-{[4-(2,4-Difluorophenyl)-5-fluoropyrimidin-2-yl]amino}-5-(trifluoromethyl)benzyl](methyl)oxido-λ^6-sulfanylidene}cyanamide]	1400 nM	75%	440 nM	–	–	–	–	–	–	–	–	–	–	–	–	–
CS(=N)(=O)Cc1cc(Nc2ncc(F)c(-c3ccc(F)cc3F)n2)cc(C(F)(F)F)c1 (racemic) [Example 4, (rac)-4-(2,4-Difluorophenyl)-5-fluoro-N-{3-[(S-methylsulfonimidoyl)methyl]-5-(trifluoromethyl)phenyl}pyrimidin-2-amine]	880 nM	91%	960 nM	–	–	–	–	–	–	–	–	–	–	–	–	–
CS(=O)(Cc1cc(Nc2ncc(F)c(-c3ccc(F)cc3F)n2)cc(C(F)(F)F)c1)=NC(N)=O (racemic) [Example 7, (rac)-1-{[3-{[4-(2,4-Difluorophenyl)-5-fluoropyrimidin-2-yl]amino}-5-(trifluoromethyl)benzyl](methyl)oxido-λ^6-sulfanylidene}urea]	1100 nM	80%	470 nM	–	–	–	–	–	–	–	–	–	–	–	–	–
CS(=N)(=O)Cc1cc(Cl)cc(Nc2ncc(F)c(-c3ccc(F)cc3F)n2)c1 (racemic) [Example 15, (rac)-N-{3-chloro-5-[(S-methylsulfonimidoyl)methyl]phenyl}-4-(2,4-difluorophenyl)-5-fluoropyrimidin-2-amine]	630 nM	79%	2210 nM	110 nM	–	–	–	–	–	–	–	–	–	–	–	–
CS(=O)(Cc1cc(Nc2ncc(F)c(-c3ccc(F)cc3F)n2)cc(S(F)(F)(F)(F)F)c1)=NC#N (racemic) [Example 28, (rac)-{[3-{[4-(2,4-Difluorophenyl)-5-fluoropyrimidin-2-yl]amino}-5-(pentafluoro-λ^6-sulfanyl)benzyl](methyl)oxido-λ^6-sulfanylidene}cyanamide]	1300 nM	–	262 nM	185 nM	120 nM	363 nM	311 nM	359 nM	222 nM	–	–	–	–	–	–	–
CS(=O)(Cc1cc(Nc2ncc(F)c(-c3ccc(F)cc3F)n2)cc(C(F)(F)F)c1)=NC#N (single isomer, unassigned) [Example 2, {[3-{[4-(2,4-Difluorophenyl)-5-fluoropyrimidin-2-yl]amino}-5-(trifluoromethyl)benzyl](methyl)oxido-λ^6-sulfanylidene}cyanamide]	1200 nM	79%	350 nM	130 nM	320 nM	390 nM	310 nM	360 nM	300 nM	–	–	–	–	–	–	–
CS(=O)(Cc1cc(Nc2ncc(F)c(-c3ccc(F)cc3F)n2)cc(C(F)(F)F)c1)=NC#N (single isomer, unassigned) [Example 3, {[3-{[4-(2,4-Difluorophenyl)-5-fluoropyrimidin-2-yl]amino}-5-(trifluoromethyl)benzyl](methyl)oxido-λ^6-sulfanylidene}cyanamide]	1300 nM	76%	–	–	–	–	–	–	–	200 nM	590 nM	340 nM	370 nM	340 nM	260 nM	300 nM
CS(=O)(Cc1cc(Nc2ncc(F)c(-c3ccc(F)cc3F)n2)cc(C(F)(F)F)c1)=NC(N)=O (single isomer, unassigned) [Example 23, 1-{[3-{[4-(2,4-Difluorophenyl)-5-fluoropyrimidin-2-yl]amino}-5-(trifluoromethyl)benzyl](methyl)oxido-λ^6-sulfanylidene}urea]	370 nM	93%	–	–	200 nM	380 nM	250 nM	350 nM	230 nM	–	290 nM	–	–	–	970 nM	–
CS(=N)(=O)Cc1cc(Nc2ncc(F)c(-c3ccc(F)cc3F)n2)cc(S(F)(F)(F)(F)F)c1 (single isomer, unassigned) [Example 32, 4-(2,4-Difluorophenyl)-5-fluoro-N-{3-[(S-methylsulfonimidoyl)methyl]-5-(pentafluoro-λ^6-sulfanyl)phenyl}pyrimidin-2-amine]	1600 nM	91%	–	–	304 nM	406 nM	397 nM	483 nM	282 nM	–	331 nM	–	–	–	268 nM	–
CS(=O)(Cc1cc(Nc2ncc(F)c(-c3ccc(F)cc3F)n2)cc(S(F)(F)(F)(F)F)c1)=NC(N)=O (single isomer, unassigned) [Example 33, 1-{[3-{[4-(2,4-Difluorophenyl)-5-fluoropyrimidin-2-yl]amino}-5-(pentafluoro-λ^6-sulfanyl)benzyl](methyl)oxido-λ^6-sulfanylidene}urea]	1600 nM	–	278 nM	–	–	611 nM	–	–	–	495 nM	–	–	507 nM	675 nM	246 nM	716 nM
